Measurements taken from publication PMC10439158, “The net electrostatic potential and hydration of ABCG2 affect substrate transport” (Nature Communications, 2023).
pIC50: −log10 of the molar value. Like-named read-outs stand apart in the source and are kept apart here.

Legend:
[1] = target: T1, ABCG2 (Homo sapiens, UniProt Q9UNQ0); assay: isothermal shift assay on membranes; Hoechst […] transport inhibition; 5D3 shift; disulfide crosslinking; format: cell-based; set-up: full-length ABCG2-WT in membrane vesicles / MEF cells
T1 sequence (Q9UNQ0 1-655): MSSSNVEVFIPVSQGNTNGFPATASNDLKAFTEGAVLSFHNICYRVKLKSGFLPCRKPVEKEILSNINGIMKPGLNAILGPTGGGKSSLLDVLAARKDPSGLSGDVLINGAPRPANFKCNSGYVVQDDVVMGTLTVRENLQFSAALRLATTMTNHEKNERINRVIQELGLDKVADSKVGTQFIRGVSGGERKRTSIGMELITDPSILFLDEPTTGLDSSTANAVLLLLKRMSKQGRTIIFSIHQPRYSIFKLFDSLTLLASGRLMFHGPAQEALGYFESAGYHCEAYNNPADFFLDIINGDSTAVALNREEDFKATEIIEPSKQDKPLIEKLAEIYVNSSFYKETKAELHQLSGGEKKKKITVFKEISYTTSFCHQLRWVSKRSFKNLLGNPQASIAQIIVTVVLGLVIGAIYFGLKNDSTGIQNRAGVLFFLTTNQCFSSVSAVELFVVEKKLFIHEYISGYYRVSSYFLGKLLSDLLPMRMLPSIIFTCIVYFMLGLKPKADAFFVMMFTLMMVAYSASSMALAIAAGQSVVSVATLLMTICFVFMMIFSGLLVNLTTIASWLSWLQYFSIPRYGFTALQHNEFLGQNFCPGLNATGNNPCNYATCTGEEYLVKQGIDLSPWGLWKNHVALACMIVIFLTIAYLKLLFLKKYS

[2] = target: T1, ABCG2; assay: cell-based; set-up: full-length ABCG2-WT in MEF cells; species or system Abcg2-KO MEFs expressing human ABCG2-WT; Inhibition of ABCG2-mediated Hoechst 33342 efflux; intracellular Hoechst 33342 fluorescence accumulation, normalized to vector control; conditions: 0.5 uM Hoechst 33342 substrate, 2 h, 37 °C; read-out: IC50 for transport inhibition in WT
Description: The intracellular accumulation of fluorescent Hoechst 33342, pheophorbide a, chlorin e6, and purpurin 18, ABCG2 substrates, was used to determine the function of ABCG2. […] Thereafter, the medium was removed, and cells were washed twice with 200 μL ice-cold PBS and the fluorescence of Hoechst 33342 was then quantitatively determined with a Synergy H4 microplate reader (BioTek, Winooski, VT, USA) at an excitation wavelength of 355 nm and an emission wavelength of 460 nm. The accumulation of Hoechst 33342 was normalized to protein concentration as determined using the BCA Protein Assay Kit (Pierce, Rockford, IL, USA). The data were normalized by the proportion accumulated relative (%) to vector control. For the time-dependent Hoechst 33342 accumulation assay, 10 μM Hoechst 33342 was treated for different time periods (0.5, 1, 1.5, 2, 5, 10, 20, 30, 60, and 90 min). Relative intracellular Hoechst 33342 levels in the MEFs were normalized to vector control at 90 min. For the other fluorescent substrate accumulation assay, 0.5 μM pheophorbide a, 5 μM chlorin e6, or 5 μM purpurin 18 were treated for 1 h at 37 °C in the dark. The intracellular accumulation of pheophorbide a, purpurin 18, or chlorin e6 was measured at an excitation wavelength of 405 nm and an emission wavelength of 667 nm. […] Thereafter, the medium was removed and cells were washed twice with 1 mL ice-cold PBS. […] The total radioactivity was measured by liqu Apparent EC50 and IC50 values were calculated from dose-response data using nonlinear regression analysis. All experiments were independently repeated at least three times. […] Non-polar residues are grey, polar residues are green, and acidic residues are red.

[3] = target: T1, ABCG2; format: cell-based; set-up: full-length ABCG2-WT in membrane vesicles / MEF cells
[4] = target: T1, ABCG2; assay: cell-based; set-up: full-length ABCG2-WT in MEF cells; species or system MEF (mouse embryonic fibroblasts) expressing human ABCG2-WT; Inhibition of ABCG2-mediated Hoechst 33342 transport; intracellular Hoechst 33342 fluorescence accumulation; conditions: ABCG2-WT, 0.5 uM Hoechst 33342; read-out: Hoechst 33342 transport inhibition IC50
Description: The intracellular accumulation of fluorescent Hoechst 33342, pheophorbide a, chlorin e6, and purpurin 18, ABCG2 substrates, was used to determine the function of ABCG2. For Hoechst 33342 accumulation assay, MEFs were seeded into a 96-well black clear bottom plate (Corning #3603) at 20,000 cells/well and 0.5 μM Hoechst 33342, and either [compound left out] or the test inhibitor (0.002–10 μM) were added to the culture medium followed by incubation for 2 h at 37 °C in the dark. Thereafter, the medium was removed, and cells were washed twice with 200 μL ice-cold PBS and the fluorescence of Hoechst 33342 was then quantitatively determined with a Synergy H4 microplate reader (BioTek, Winooski, VT, USA) at an excitation wavelength of 355 nm and an emission wavelength of 460 nm. The accumulation of Hoechst 33342 was normalized to protein concentration as determined using the BCA Protein Assay Kit (Pierce, Rockford, IL, USA). […] The intracellular accumulation of pheophorbide a, purpurin 18, or chlorin e6 was measured at an excitation wavelength of 405 nm and an emission wavelength of 667 nm. […] The total radioactivity was measured by liqu Fig. 4 N436A substitution affects inhibitor interaction. a–d Representative snapshots from MDS of tariquidar interacting with ABCG2. a ABCG2-WT with residues within 4 Å of tariquidar are in surface representation. […]

pIC50 [2] | Compound | isothermal shift assay on membranes; Hoechst 33342 transport inhibition; 5D3 shi [1] | isothermal shift assay on membranes; Hoechst 33342 transport inhibition; 5D3 shi [3] | pIC50 [4]
7.30 | CS(=O)(=O)CCNCc1ccc(-c2ccc3ncnc(Nc4ccc(OCc5cccc(F)c5)c(Cl)c4)c3c2)o1 [lapatinib] | ABCG2 inhibitors, Ko143, tariquidar, and lapatinib, strongly and dose-dependently thermally stabilized ABCG2-WT | – | –
– | COc1cc2c(cc1OC)CN(CCc1ccc(NC(=O)c3cc(OC)c(OC)cc3NC(=O)c3cnc4ccccc4c3)cc1)CC2 [tariquidar] | – | ABCG2 inhibitors, Ko143, tariquidar, and lapatinib, strongly and dose-dependently thermally stabilized ABCG2-WT | 7.10
